The conditions of data set [1]: pH of the compound as Mn plant nutrient source in water; cited from earlier work.
The conditions of data set [2]: at 25° C. The text has this: Manganese thiosulfate, also referred to herein as “MnTS”, is a liquid source of Mn with up to 20% concentration.

Here are results for 3 compounds from patent publication US7914763B1, “Process and apparatus for preparing manganese thiosulfate (MnTS) solution” (Tessenderlo Kerley, Inc., priority 2010, dated 2011).

For the compound manganese carbonate [MnCO3], in data set [1], the “respective pH” value is recorded as 6.4.
With manganese thiosulfate [MnTS], the “Mn concentration of saturated solution of MnTS” value (MnTS prepared by salt exchange of MnSO4 with calcium thiosulfate, evaporated to point of crystal formation, percent by weight) turned out to be 5.85 % Mn. The “Solubility of MnTS (saturated solution)” value (saturated solution, corresponding to measured Mn, percent by weight) was ~17 % MnTS. Moreover, for the setting “solid from evaporation redissolved in aqueous solution at ambient temperature, calculated from Mn concentration”, the “Maximum solubility of MnTS” value is given as 17-18%. For the same compound, the “pH of solution of manganese thiosulfate” value in data set [2] is given as 5-6.
For the compound `O=S(=O)([O-])[O-].[Mn+2]` [MnSO4, manganese sulfate], in data set [1], the “respective pH” value is 2.8.
